Reference: patent US20210113482A1, “Poly (Alkyl Cyanoacrylate) Nanoparticles for Use in Treatment of Cancer” (Sintef TTO AS, priority 2018, published 2021)
Like-named read-outs stand apart in the source and are kept apart here.

Experiments:
[1] = test system: CD68 (whole macrophage population); test: Macrophage infiltration in treated MAS98.12 tumors, immunohistochemistry with anti-CD68; format: in vivo, mice; conditions: 96 h after single injection; compared to free CBZ or saline; not statistically significant
Method: (§1) Immunohistochemistry. Tumors from MAS98.12 bearing mice were collected 96 h after a single injection of the same substances as were injected in the MAS98.12 efficacy study. The tumors were preserved in 4% (v/v) formalin and then paraffinized and sliced to prepare consecutive slides (3 μm thick). The deparaffinization agent Neo-clear and mounting agent Neo-mount were obtained from VWR (Radnor, Pa., USA). Heat induced epitope retrieval was performed by placing deparaffinized slides with 10 mM sodium citrate buffer (pH 6.0) in water bath for 20 min at 100° C. Endogenous peroxidase activity was blocked by incubating slides with 3% (v/v) hydrogen peroxide in Tris-buffered saline (TBS; 50 mM Tris-Cl, 150 mM NaCl, pH 7.6). Sections were washed and blocking of non-specific binding was performed with 3% (w/v) bovine serum albumin (Roche diagnostics GmbH, Mannheim, Germany) in TBS for 30 min. Sections were then incubated for 60 min with the primary antibodies. […]
(§2) Stained tissue sections were scanned (NanoZoomer HT, Hamamatsu Photonics, Hamamatsu, Japan) using a 40× objective. The extent of CD68, iNOS and CD206 was automatically scored using the ImmunoPath software (Room4 Ltd., Crowborough, UK). […] The annotated representative areas were analyzed further by computerized image analysis. […]

[2] = test system: CD206 (M2, pro-tumorigenic anti-inflammatory macrophages); test: Macrophage infiltration in treated MAS98.12 tumors, immunohistochemistry with anti-CD206; format: in vivo, mice; conditions: 96 h after single injection
Method: as §1, §2

MDA-MB-231 tumors = test: Treatment efficacy in mice bearing MDA-MB-231 tumors; format: in vivo; conditions: 2×15 mg CBZ/kg i.v.
Method: (§3) Treatment efficacy evaluation in nude mice.
(§4) The ortothopically growing basal-like xenograft model MAS98.12 has been established in house and was used as previously described in Lindholm et al (2012). When using the MDA-MB-231 cell line, 1.5 million cells were injected into the mammary fat pad and growing tumors were used for sequential implantation. As for the MAS98.12 model, 1-2 mm^3 pieces of healthy tumor tissue were implanted bilaterally into the mammary fat pad of female athymic mice. After the tumors reached approximately 5 mm in diameter, the mice were randomly assigned to the different treatment groups (the average volume of each group was 49-57 mm^3).

[3] = test system: MAS98.12 patient derived xenograft (PDX) breast tumor, basal-like; test: Treatment efficacy in mice bearing MAS98.12 patient derived xenograft; format: in vivo
Method: as §3, §4
Statistical analyses. To calculate the significance in the efficacy studies, the area under the curve was calculated for each tumor and the mean values of the groups were compared using the Welch unequal variance. To determine whether there is a significant difference between the frequencies of the tumor regression in the different treatment groups, we used the Fischer's exact test. If not stated otherwise, an unpaired two-sided Student t-test without Welch correction was used. The statistical analyses were performed using either GraphPad Prism (version 7.00 for Windows, GraphPad Software, La Jolla, Calif., US) or Microsoft Excel.

[4] = Pharmacokinetics in blood: CBZ in plasma by LC-MS/MS in MAS98.12 bearing mice; format: in vivo; conditions: female, athymic nude foxn1nu, mouse, iv, 15 mg/kg, 15 mg/kg i.v.
Method: (§5) CBZ quantification by LC-MS/MS. CBZ, as the pure chemical or part of NPs, was quantified by LC-MS/MS, using an Agilent 1290 HPLC system coupled to an Agilent 6490 triple quadrupole mass spectrometer. The HPLC column was an Ascentis Express C8, 75×2.1 mm, 2.7 μm particles size with a 5×2.1 mm guard column of the same material (Sigma), run at 40° C. Eluent A was 25 mM formic acid in water and eluent B was 100% methanol, and flow rate was 0.5 ml/min. The mobile phase gradient was isocratic at 55% B for 1.5 min, then from 55% to 80% B over 1 min, followed by 1 min washout time and subsequently column re-equilibration. Injection volume was 5.00 μl. MS detection was in positive ESI mode (Agilent Jetstream) quantified in multiple reaction monitoring (MRM) mode using the transition m/z 858.3→577.2. The parent ion was chosen to be the Na adduct as this gave the best sensitivity. Similarly, the hexadeuterated internal standard was detected on the 864.4→583.2 transition. Both analytes were run at 380 V fragmentor and 20 V collision energy.
Processing of tissue samples before LC-MS/MS analyses. In order to process the tissue samples such that their CBZ content could be quantified, we developed a protocol for enzymatic digestion of tissue followed by extraction and quantification of CBZ using the LC-MS/MS method described above. […]

[5] = Biodistribution: CBZ in tumor and organs by LC-MS/MS in MAS98.12 bearing mice; format: in vivo; conditions: 15 mg/kg i.v.
Method: as §5
Processing of tissue samples before LC-MS/MS analyses. In order to process the tissue samples such that their CBZ content could be quantified, we developed a protocol for enzymatic digestion of tissue followed by extraction and quantification of CBZ using the LC-MS/MS method described above. The enzyme buffer consisted of Dulbecco's Modified Eagle Medium (DMEM, Thermo Fisher Scientific, USA, 41965039) with 1% (v/v) penicillin-streptomycin stock solution (Sigma-Aldrich, P0781) to a final concentration of 100 U/ml penicillin and 100 μg/ml streptomycin, 0.125 mg/ml papain (Merck, F275644), 2.5 mg/ml trypsin (Sigma-Aldrich, T7409), 0.8 mg/ml collagenase (Sigma-Aldrich, C7926), 0.69 mg/ml hyaluronidase (Sigma-Aldrich, H3506) and 1% (v/v) Triton X-100 (Sigma-Aldrich, T-8787). To determine the biodistribution of CBZ, frozen organs (liver, spleen, lymph nodes, kidneys, tumors) were thawed and freshly prepared enzyme buffer was added at 1 ml per 50 mg tissue; the entire organs were digested. The samples were heated to 37° C. for 72 h with vortexing once a day, until the tissue was completely dissolved. The tissue digests, as well as the plasma samples from the animals, were diluted 10× in acetone before centrifugation; this has the dual effect of both precipitating proteins and other macromolecules, thus cleaning up the sample, and making sure all CBZ is solubilized. Internal standard (hexadeuterated CBZ) dissolved in acetone was added to a final concentration of 10 ng/ml during the acetone dilution to correct for possible matrix effects.
Biodistribution and pharmacokinetics in blood. Blood and tissue samples were obtained following a single i.v. injection of PEBCA-CBZ and non-encapsulated CBZ (15 mg/kg) into the tail vein of mice bearing the MAS98.12 tumor (n=3). Empty particles (PEBCA) and saline were used as negative controls. The blood samples were taken either per tail vein puncture (approximately after 2 min and thereafter at 1, 4 and 24 h after injection) or by terminal cardiac puncture (96 h after injection) in Vacutainer tubes containing EDTA (BD Biosciences, San Jose, Calif., USA) and kept on ice. The 0-24 h samples were collected consecutively from the same animals (n=3) while samples after 96 h were obtained from separate mice (n=3). The blood was centrifuged for 15 min at 4° C. and 3400×g, and the supernatant plasma was collected and stored at −80° C. until LC-MS/MS analysis. […]

[6] = test system: iNOS (M1, anti-tumorigenic pro-inflammatory macrophages); test: Macrophage infiltration in treated MAS98.12 tumors, immunohistochemistry with anti-iNOS; format: in vivo, mice; conditions: 96 h after single injection
Method: as §1, §2

[7] = test system: MDA-MB-231, MDA-MB-468 and MCF-7 cells; test: In vitro cellular toxicity: MTT cell viability (72 h) and [3H]thymidine incorporation (24 h) in three breast cancer cell lines; format: cell-based, human; conditions: MTT assay, 72 h incubation, all cell lines
Method: Cell lines. Three breast cancer cell lines were used in this study. The MDA-MB-231 (triple negative; Claudin low), was cultured in RPMI 1640; the MDA-MB-468 (triple negative; basal) and the MCF-7 (luminal A) cell lines were cultured in DMEM. All medium was fortified with 10% (w/v) fetal calf serum albumin (Sigma) and 100 units/ml penicillin/streptomycin (PenStrep®, Sigma). All cell lines were obtained from ATCC and were routinely tested for mycoplasma. Cells growing in 24- or 96-well plates were incubated with serial dilutions of PEBCA-CBZ, CBZ (non-encapsulated CBZ) dissolved in Tween-80 (Fluka)), and PEBCA without CBZ for 24, 48 or 72 h at 37° C. in an atmosphere of 5% CO2. The toxicity was assessed either by the commonly used MTT (3-(4,5-dimethylthiazol-2-yl)-2,5-diphenyltetrazolium bromide) cell viability assay, by measuring cell proliferation based on [^3H]thymidine incorporation, by measuring protein synthesis by incorporation of [^3H]leucine and by measuring ATP levels using CellTiter Glo®.
MTT cell viability assay. […] The absorbance was read in a plate reader (Biosys Ltd, Essex, UK) at 570 nm, and background from absorbance at 650 nm was subtracted.
Cell proliferation measured by [^3H]thymidine incorporation. […] The radioactivity was counted for 1 min in a scintillation counter (Tri-Carb 2100TR, Packard Bioscience, USA).

half-life ([4]; from mean values of the two last time points (24 and 96 h), read-out: elimination half-life (converted)): ~60 h | half-life ([4]; interpolation of the two first data points (up to 1 hr), read-out: distribution half-life): ~0.5 h | change of CBZ concentration in tissue from 24 to 96 h [5]: significantly lower in tumors after 96 h | CBZ level in tumor relative to the PEBCA-CBZ group ([5]; 24 h): about ⅓ | tissue with the highest CBZ amount ([5]; 24 h): the tumor | tissues in which CBZ could be detected (above LOQ) ([5]; 96 h): only in the tumor tissue | CBZ concentration in tumors relative to that after PEBCA-CBZ ([5]; 96 h, difference not significant (p=0.18)): approximately 50%
Compound: CO[C@H]1C(=O)[C@]2(C)[C@@H](OC)C[C@H]3OC[C@@]3(OC(C)=O)[C@H]2[C@H](OC(=O)c2ccccc2)[C@]2(O)C[C@H](OC(=O)[C@H](O)[C@@H](NC(=O)OC(C)(C)C)c3ccccc3)C(C)=C1C2(C)C [CBZ, cabazitaxel]
total tumor infiltrating macrophages (CD68) [1]: no response in the macrophage populations | anti-inflammatory M2 macrophages (CD206 positive cells) in tumors [2]: no response in the macrophage populations | Tumor growth (MDA-MB-231 tumors): a delay in tumor growth was observed | efficacy compared to MAS98.12 (MDA-MB-231 tumors): less effective | Tumor growth ([3]; 2×15 mg CBZ/kg i.v. (particle dose 2×175 mg/kg), day 33 and 36): markedly inhibited tumor growth | tumors in complete remission ([3]; 2×15 mg CBZ/kg i.v., non-palpable tumors at day 57 after implantation): 2 out of 9 | pro-inflammatory M1 macrophages (iNOS) in tumors [6]: no response in the macrophage populations | fraction of the cells surviving even very high CBZ concentrations [7]: 10-20%
